Laboratory results from patent US8952221B2, “Enzymes that synthesize zingiberene” (Board of Trustees of Michigan State University, priority 2011, dated 2015).

Each compound was assayed on LA2167-ZIS zingiberene synthase (assay: Recombinant LA2167-ZIS enzyme activity assay, soluble protein from E. coli BL21 plus isoprenoid diphosphate substrate, headspace SPME GC-MS). Conditions: 10 μM substrate, 2 μg soluble protein, 30 min at 30° C., GC-MS extracted ion 93.
Format: biochemical, Solanum habrochaites
Protocol: The synthetic gene was excised from the pUC57 cloning vector by digestion with BamHI and SalI and ligated into the pHIS8 vector previously linearized by digestion with the same enzymes. Recombinant clones were transformed into E. coli BL21 cells. A 5-mL log-phase culture of E. coli BL21 cells containing the expression vector was induced by addition of IPTG to a final concentration of 0.1 mM. The induced cells were incubated with agitation at 25° C. for 16 h, and then harvested by centrifugation at 10,000 g for 15 min. The cell pellet was resuspended in 1 mL extraction buffer (50 mM HEPES pH 8, 5% glycerol, 100 mM KCl, 7.5 mM MgCl2 containing 1 mM dithiothreitol (DTT)) prior to sonication. Soluble proteins were harvested after centrifugation at 10,000 g for 20 min. The supernatant was used for subsequent enzyme assays. Two micrograms of soluble protein were mixed with 10 μM of substrate (GPP, NPP, EE-FPP or 2Z, 6Z-FPP (Echelon Biosciences Inc., Salt Lake City, Utah)) in a 2-mL glass vial. Reactions were allowed to proceed for 30 min at 30° C., and the glass vial headspace was collected with a 65 μm polydimethylsiloxane-divinylbenzene solid-phase microextraction fiber (Supelco, Bellefonte, Pa.). After 5 min of exposure at 42° C., the SPME fiber was retracted and transferred to the GC injector port for desorption at 200° C. onto the GC column for 3 min. The terpenes were separated on a DB5 column (10 m length, inner diameter and 0.25 um). The GC-MS analysis was performed as described previously […] et al. (Plant Physiol 153, 1212-1223 (2010)).

Compound | Products synthesized by LA2167-ZIS from the supplied substrate
CC(C)=CCC/C(C)=C\CC/C(C)=C\COP(=O)(O)OP(=O)(O)O [2Z,6Z-farnesyl diphosphate, (2Z,6Z)-farnesyl diphosphate, reference compound] | zingiberene peak at about 4.65 is only observed
CC(C)=CCC/C(C)=C/COP(=O)(O)OP(=O)(O)O [geranyl diphosphate, reference compound] | failed to synthesize any products
CC(C)=CCC/C(C)=C\COP(=O)(O)OP(=O)(O)O [neryl diphosphate, reference compound] | failed to synthesize any products

Same assay, conditions: substrate 2Z,6Z-Farnesyl diphosphate; SEQ ID NO:3 in pHIS8, E. coli BL21 DE3; GC-MS

Compound | Peak Area % of products synthesized by recombinant LA2167-ZIS [%]
CC(C)=CCCC(C)c1ccc(C)cc1 (stereo not drawn) [AR-curcumene] | 0.986
C=C(CCC=C(C)C)[C@@H]1CC=C(C)CC1 [Bisabolene beta] | 0.107
C=C(C)C(CO)C/C=C(/C)CCC=C(C)C (stereo not drawn) [Sesquilavandulol <Z>] | 0.228
C=C1C=CC(C(C)CCC=C(C)C)CC1 (stereo not drawn) [Sesquiphellandrene beta] | 0.567
bergamotene | 0.273
zingiberene | 97.839
